Data as given in patent US10105357B2, “Indication of antibiotic drugs for preparation of cancer inhibition pharmaceutical composition” (LAUNX BIOMEDICAL CO., LTD., priority 2014, dated 2018).
Counter-ions that a name gives are not always drawn. Like-named read-outs stand apart in the source and are kept apart here.

How the values were obtained:
Type in all cases: cell-based, human
[1] = tested on: HI650 (Lung Adenocarcinoma); test: Cell viability analysis, lung cancer HI650; settings: Homo sapiens, NCI-H1650, 72 h
[2] = tested on: A549 (Lung Adenocarcinoma); test: Cell viability analysis, lung cancer A549; settings: for viability at 10 µM: Homo sapiens, A549, 72 h
[3] = tested on: PC3 (p53−) (Prostate Adenocarcinoma); test: Cell viability analysis, prostate cancer PC3; settings: 72 h; for viability at 10 µM: Homo sapiens
[4] = tested on: A375 (Amelanotic Melanoma); test: Cell viability analysis, skin cancer A375; settings: for viability at 10 µM: Homo sapiens, A-375, 72 h
[5] = tested on: HeLa (Cervix Adenocarcinoma); test: Cell viability analysis, cervical cancer HeLa; settings: Homo sapiens, HeLa, 72 h
[6] = tested on: MCF7 (Mammary Gland, Adenocarcinoma); test: Cell viability analysis, breast cancer MCF7; settings: Homo sapiens, MCF7, 72 h
[7] = tested on: TSGH-8301 (Urinary Bladder Carcinoma); test: Cell viability analysis, bladder cancer TSGH-8301; settings: 72 h; for viability at 10 µM: Homo sapiens
[8] = tested on: LoVo (Colorectal Adenocarcinoma); test: Cell viability analysis, colon cancer LoVo; settings: 72 h; for viability at 10 µM: Homo sapiens, LoVo, read-out: cell viability (survival rate), LoVo, drug 10 μM, 72 hours, WST-1, OD450 nm
[9] = tested on: MKN-45 (Gastric Adenocarcinoma); test: Cell viability analysis, gastric cancer MKN-45; settings: for viability at 10 µM: Homo sapiens, MKN-45, 72 h
[10] = tested on: AGS (Gastric Adenocarcinoma); test: Cell viability analysis, gastric cancer AGS; settings: Homo sapiens, 72 h
[11] = tested on: HepG2 (Hepatocellular Carcinoma); test: Cell viability analysis, hepatic cancer HepG2; settings: Homo sapiens, HepG2, 72 h
[12] = tested on: HL-60 (Acute Promyelocytic Leukemia); test: Cell viability analysis, leukemia HL-60; settings: Homo sapiens, HL-60, 72 h
[13] = tested on: cancer cell lines; test: Cell viability analysis (WST-1) on cancer cell lines; settings: drug 10 μM, 72 hours, WST-1; Table 3
[14] = read-out: cell viability (survival rate), H1650, drug 10 μM, 72 hours, WST-1, OD450 nm
[15] = read-out: cell viability (survival rate), A549, drug 10 μM, 72 hours, WST-1, OD450 nm
[16] = read-out: cell viability (survival rate), PC3, drug 10 μM, 72 hours, WST-1, OD450 nm
[17] = read-out: cell viability (survival rate), A375, drug 10 μM, 72 hours, WST-1, OD450 nm
[18] = read-out: cell viability (survival rate), HeLa, drug 10 μM, 72 hours, WST-1, OD450 nm
[19] = read-out: cell viability (survival rate), MCF7, drug 10 μM, 72 hours, WST-1, OD450 nm
[20] = read-out: cell viability (survival rate), TSGH, drug 10 μM, 72 hours, WST-1, OD450 nm
[21] = read-out: cell viability (survival rate), MKN-45, drug 10 μM, 72 hours, WST-1, OD450 nm
[22] = read-out: cell viability (survival rate), AGS, drug 10 μM, 72 hours, WST-1, OD450 nm
[23] = read-out: cell viability (survival rate), HepG2, drug 10 μM, 72 hours, WST-1, OD450 nm
[24] = read-out: cell viability (survival rate), HL-60, drug 10 μM, 72 hours, WST-1, OD450 nm
[25] = drug 10 μM, 72 hours, WST-1, OD450 nm, read-out: cell viability (survival rate), H1650
[26] = drug 10 μM, 72 hours, WST-1, OD450 nm, read-out: cell viability (survival rate), A549
[27] = drug 10 μM, 72 hours, WST-1, OD450 nm, read-out: cell viability (survival rate), PC3
[28] = drug 10 μM, 72 hours, WST-1, OD450 nm, read-out: cell viability (survival rate), A375
[29] = drug 10 μM, 72 hours, WST-1, OD450 nm, read-out: cell viability (survival rate), HeLa
[30] = drug 10 μM, 72 hours, WST-1, OD450 nm, read-out: cell viability (survival rate), MCF7
[31] = drug 10 μM, 72 hours, WST-1, OD450 nm, read-out: cell viability (survival rate), TSGH
[32] = drug 10 μM, 72 hours, WST-1, OD450 nm, read-out: cell viability (survival rate), MKN-45
[33] = drug 10 μM, 72 hours, WST-1, OD450 nm, read-out: cell viability (survival rate), AGS
[34] = drug 10 μM, 72 hours, WST-1, OD450 nm, read-out: cell viability (survival rate), HepG2
[35] = drug 10 μM, 72 hours, WST-1, OD450 nm, read-out: cell viability (survival rate), HL-60

SMILES	viability at 10 µM [1, 14] [%]	viability at 10 µM [2, 15] [%]	viability at 10 µM [3, 16] [%]	viability at 10 µM [4, 17] [%]	viability at 10 µM [5, 18] [%]	viability at 10 µM [6, 19] [%]	viability at 10 µM [7, 20] [%]	viability at 10 µM [8] [%]	viability at 10 µM [9, 21] [%]	viability at 10 µM [10, 22] [%]	viability at 10 µM [11, 23] [%]	viability at 10 µM [12, 24] [%]	inhibition effect on different cancer cell lines [13]	also measured
CN(C)c1ccc(C(=C2C=CC(=[N+](C)C)C=C2)c2ccc(N(C)C)cc2)cc1 [Crystal violet]	68.5	37.5	31.8	32	38.9	46	44.1	62.3	44.8	52.7	70.3	37.3	significant inhibition effect	–
Oc1c(Cl)cc(Cl)c2cccnc12 [Chloroxine]	77.1	120	87.2	72.5	71.7	68.7	62.7	85.5	52.7	31.1	93.9	50.5	significant inhibition effect	–
CC(C)NCC(O)c1ccc(O)c(O)c1 (stereo not drawn) [Isoprenaline hydrochloride]	39.9	56.1	73.6	90	91.1	73.2	81.6	80.6	79.6	72	81.4	96.8	significant inhibition effect	–
CO/N=C(\C(=O)N[C@@H]1C(=O)N2C(C(=O)O)=C(CSC(=O)c3ccco3)CS[C@H]12)c1csc(N)n1 [Ceftiofur hydrochloride]	44	61.6	73.1	92.8	92.2	159	50.6	85	85.5	69.4	91.9	92.2	significant inhibition effect	–
CCOc1ccc2nc3cc(N)ccc3c(N)c2c1 [Ethacridine lactate monohydrate]	–	–	–	–	–	–	–	50.1	–	–	–	–	significant inhibition effect	viability at 10 µM [1, 25]: 52.5%; viability at 10 µM [2, 26]: 75.1%; viability at 10 µM [3, 27]: 64.6%; viability at 10 µM [4, 28]: 40.1%; viability at 10 µM [5, 29]: 39.9%; viability at 10 µM [6, 30]: 68.7%; viability at 10 µM [7, 31]: 46.8%; viability at 10 µM [9, 32]: 49.7%; viability at 10 µM [10, 33]: 38.2%; viability at 10 µM [11, 34]: 65.5%; viability at 10 µM [12, 35]: 44.1%
NCC[C@H](O)C(=O)N[C@@H]1C[C@H](N)[C@@H](O[C@H]2O[C@H](CN)[C@@H](O)[C@H](O)[C@H]2O)[C@H](O)[C@H]1O[C@H]1O[C@H](CO)[C@@H](O)[C@H](N)[C@H]1O [Amikacin hydrate]	–	–	–	–	–	–	–	99	–	–	–	–	significant inhibition effect	viability at 10 µM [1, 25]: 87.7%; viability at 10 µM [2, 26]: 111%; viability at 10 µM [3, 27]: 102%; viability at 10 µM [4, 28]: 87.7%; viability at 10 µM [5, 29]: 96.3%; viability at 10 µM [6, 30]: 81.4%; viability at 10 µM [7, 31]: 138%; viability at 10 µM [9, 32]: 104%; viability at 10 µM [10, 33]: 85.8%; viability at 10 µM [11, 34]: 88.4%; viability at 10 µM [12, 35]: 108%
Nc1ncnc2c1ncn2[C@@H]1O[C@H](CO)[C@@H](O)[C@@H]1O [Vidarabine (Vira-A), Vidarabine]	78.8	32.2	70.6	48.1	47.7	36.5	68.6	72.9	44.4	104	74.2	99	significant inhibition effect	–
COC(=O)Nc1nc2ccc(Sc3ccccc3)cc2[nH]1 [Fenbendazole (Panacur), Fenbendazole]	60.2	40.9	42	40.6	38.6	55.8	27.2	52.9	40.3	29.9	76.1	66.6	significant inhibition effect	–
Clc1ccccc1C(c1ccccc1)(c1ccccc1)n1ccnc1 [Clotrimazole (Canesten), Clotrimazole]	75.9	85.5	69.3	81.4	90	56.8	50.8	94.1	53.9	85.7	102	106	significant inhibition effect	–
CC(=O)Oc1cc(C(F)(F)F)ccc1C(=O)O [Triflusal]	81.3	112	87.5	95.9	105	97.8	86.5	103	134	93.3	103	93.3	significant inhibition effect	–
CN(C)[C@@H]1C(O)=C(C(N)=O)C(=O)[C@@]2(O)C(O)=C3C(=O)c4c(O)cccc4[C@@](C)(O)[C@H]3[C@H](O)[C@@H]12 [Oxytetracycline dihydrate]	73.8	–	–	–	65.6	34.2	–	–	–	71.7	93.4	99.3	significant inhibition effect	cell viability (survival rate), A549 ([2]; human, 72 h, 10 µM): 22.1; cell viability (survival rate), PC3 ([3]; human, 10 µM): 42.1; cell viability (survival rate), A375 ([4]; human, 72 h, 10 µM): 72.5; cell viability (survival rate), TSGH ([7]; human, 10 µM): 53.4; cell viability (survival rate), LoVo ([8]; human, 10 µM): 47.0; cell viability (survival rate), MKN-45 ([9]; human, 72 h, 10 µM): 81.4
CC(=O)N1CCN(c2ccc(OCC3COC(Cn4ccnc4)(c4ccc(Cl)cc4Cl)O3)cc2)CC1 (stereo not drawn) [Ketoconazole]	46.1	75.7	80.1	49.2	84.3	118	107	90.3	77	65.7	88.7	88.3	significant inhibition effect	–
